{"source": "patent US20100120703A1", "about": "“COMPOSITIONS AND METHODS FOR TREATING CANCER” (priority 2007, published 2010)", "key": {"Clone 9 cells": {"system": "Clone 9 cells", "assay": "Neutral red cell viability assay", "format": "cell-based, rat", "details": "SIN up to 1,000 μM, 72 hours", "source_text": "(§1) The neutral red (NR) cytotoxicity assay is a chemosensitivity assay for measuring cell survival/viability, based on the ability of viable cells to incorporate and bind neutral red, a supravital dye. NR is a weak cationic dye that readily penetrates cell membranes by non-ionic diffusion, accumulating intracellularly in lysosomes, where it binds with anionic sites in the lysosomal matrix. Alterations of the cell surface or the sensitive lysosomal membrane lead to lysosomal fragility and other changes that gradually become irreversible. Such changes brought about by the action of xenobiotics result in a decreased uptake and binding of NR. It is thus possible to distinguish between viable, damaged, or dead cells. (Babich, H et al, 1990)\n(§2) Three different cell lines HepG2, WRL-68 and Clone 9 cell lines were used in the experiment. HepG2 is a human hepatoblastoma cell line. It is a well known cell model in anti-HCC studies (Alshatwi A A, et al, 2006). WRL-68 is a human normal liver embryo cell line that has a morphologic structure similar to hepatocytes and hepatic primary cultures (Gutierrez-Ruiz, et al, 1994). This cell line was used as the control. Clone 9 is the rat Sprague Dawley (SD) liver normal cell line. […]\n(§3) HepG2, WRL-68 and Clone 9 cells were grown in complete culture medium (RPMI or DMEM), trypsinized and washed. […] The color was measured at OD540nm."}, "HepG2 cells [1]": {"system": "HepG2 cells", "assay": "Cell cycle analysis by flow cytometry (PI)", "format": "cell-based, human", "method": "Flow Cytometery is a rapid and quantitative method for measuring certain physical and chemical characteristics of cells or particles as they travel in suspension through a sensor. When the cell is labeled with propidium iodide (PI), the DNA content can be measured which is used to determine the stage of the cell cycle. When cell cycles are obtained, a cell cycle map can be recorded.\nHepG2 cells were trypsinized, washed and seeded into […] culture plates in complete RPMI medium. After 24 hours of pre-incubation, different concentrations (250 μM and 500 μM) of SIN were added to the culture plates. The complete RPMI medium was added to one plate containing control cells. After different periods of incubation with SIN, cells were harvested, the medium was removed from the culture plate and the plate was washed twice with 2 ml of 1×PBS buffer. All of the solutions were collected, and the cells were trypsinized and collected. The whole solution was centrifuged at 1,000 rpm for 3 minutes. The supernatant was removed and the cell pellet was resuspended in 1 ml 1×PBS buffer for washing. […]\nThe cell pellet was resuspended in 1 ml of 70% ethanol and 0.1 ml of 1×PBS buffer. […] DNA content was analyzed using an FACScan Flow cytometry with sufficient Sheath Fluid. The results were analyzed by the FCS express software produced by the De Novo Software Company."}, "WRL-68 cells": {"system": "WRL-68 cells", "assay": "Neutral red cell viability assay", "format": "cell-based, human", "details": "SIN up to 1,000 μM, 72 hours", "source_text": "as §1, §2, §3"}, "[2]": {"system": "rats previously treated with dimethylhydrazine (DMH)", "details": "cited from earlier work"}, "HepG2 cells [3]": {"system": "HepG2 cells", "assay": "Apoptosis determination by DNA fragmentation assay", "format": "cell-based, human", "source_text": "DNA fragmentation or DNA laddering is an indication of apoptosis. During the apoptosis process, the enzymes involved in DNA repair and cell replication are inactivated and nuclear proteins are degraded. After the nuclear structure is fragmented, DNA inside the nucleus is fragmented by the enzyme Caspase Activated DNase. This enzyme is only activated during apoptosis and causes the fragmentation of DNA into nucleosomal units (Hugh J M Brady, 2004). DNA fragmentation is used to identify the apoptosis event.\nHepG2 cells were treated and harvested as described in the foregoing examples. The cell pellet was re-suspended in 400 μl of the lysis buffer by vortexing. Twenty microliters of 10 mg/ml protease K were added into the solution after a complete dissolution. The solution was incubated at 37° C. for 3 hours to completely lyse the cells. After incubation, the solution was allowed to cool to room temperature. One hundred and fifty microliters of a saturated NaCl solution were added into the cell lysate and vortexed. The lysate was centrifuged at 7,000 rpm for 15 minutes. The supernatant was collected in a new microcentrifuge tube. One milliliter of ice cold absolute ethanol was added to the solution to precipitate DNA. After precipitation, the microcentrifuge tube was centrifuged at 14,000 rpm for 20 minutes at 4° C. […]"}, "HepG2 cells [4]": {"system": "HepG2 cells", "assay": "Neutral red cell viability assay", "format": "cell-based", "details": "Homo sapiens", "source_text": "as §1\nThree different cell lines HepG2, WRL-68 and Clone 9 cell lines were used in the experiment. HepG2 is a human hepatoblastoma cell line. It is a well known cell model in anti-HCC studies (Alshatwi A A, et al, 2006). WRL-68 is a human normal liver embryo cell line that has a morphologic structure similar to hepatocytes and hepatic primary cultures (Gutierrez-Ruiz, et al, 1994). This cell line was used as the control. Clone 9 is the rat Sprague Dawley (SD) liver normal cell line. In the in vivo studies, sinigrin (SIN) would be applied to the SD rat animal model. The employment of this cell line in the cell viability study was to test if SIN would be toxic in the rat animal model.\nHepG2, WRL-68 and Clone 9 cells were grown in complete culture medium (RPMI or DMEM), trypsinized and washed. Ten thousand cells of each cell type were seeded in 96-well plates. After 24 hours of pre-incubation, cells were treated with different concentrations of SIN and incubated for 72 hours. After incubation, cells were harvested and washed twice with 1×PBS buffer. Fifty microliters of Neutral Red solution were added to each well. The whole plate was placed into an incubator at 37° C. with 5% CO2. After incubation for 1 hour, the plate was washed twice with 1×PBS buffer, and completely dried in a 60° C. oven overnight. […] The color was measured at OD540nm."}, "human colon cancer cells": {"system": "human colon cancer cells", "details": "cited from earlier work"}, "[5]": {"details": "HepG2, 72 h, read-out: viability of HepG2 cells"}}}
{"molecule": "C=CC/C(=N/OS(=O)(=O)[O-])S[C@@H]1OC(CO)[C@@H](O)C(O)C1O.[K+]", "note": "(stereo partly drawn) [SIN, sinigrin]", "values": [{"measurement": "cell viability of Clone 9 cells (healthy liver cells)", "setting": "Clone 9 cells", "value": "no decrease in cell viability was observed"}, {"measurement": "cells arrested in sub G1 phase vs untreated cells", "setting": "HepG2 cells [1]; 0.5 mM SIN, 96 hours", "value": "the increase of the cells arrested in sub G1 phase becomes very obvious"}, {"measurement": "cell cycle effect in HepG2 cells", "setting": "HepG2 cells [1]; SIN treatment, 24-96 hours", "value": "G0/G1 phase arrest"}, {"measurement": "cell viability of WRL-68 cells (healthy liver cells)", "setting": "WRL-68 cells", "value": "no decrease in cell viability was observed"}, {"measurement": "apoptosis in colonic tissue vs DMH only", "setting": "[2]; DMH treated rats", "value": "higher level of apoptosis"}, {"measurement": "aberrant crypt foci in colonic tissue", "setting": "[2]; sinigrin administered after DMH", "value": "suppresses induction of aberrant crypt foci"}, {"measurement": "DNA ladder on agarose gel", "setting": "HepG2 cells [3]; 0.25 mM SIN", "value": "A DNA ladder started to appear"}, {"measurement": "DNA ladder on agarose gel", "setting": "HepG2 cells [3]; 0.5 mM SIN, 96 hours", "value": "a DNA ladder was clearly visible"}, {"measurement": "viability at 25 µM", "setting": "HepG2 cells [4]; [5]", "value": "~70", "unit": "%"}, {"measurement": "viability at 1000 µM", "setting": "HepG2 cells [4]; [5]", "value": "~35", "unit": "%"}, {"measurement": "IC50", "setting": "HepG2 cells [4]; HepG2, 72 hours, neutral red", "value": "< 250", "unit": "µM"}, {"measurement": "action on apoptosis and cell proliferation", "setting": "human colon cancer cells", "value": "might be apoptosis- and cell proliferation-independent"}]}
